{"source": "patent US20260109944A1", "about": "“Culture Method for Organoids” (Koninklijke Nederlandse Akademie Van Wetenschappen, priority 2014, published 2026)", "molecules": {"B1": {"name": "BMP7: BMP pathway activator; induces the phosphorylation of SMAD1 and SMAD5 (protein, UniProt P18075 293-431, looked up)", "Bone morphogenetic protein 7": "STGSKQRSQNRSKTPKNQEALRMANVAENSSSDQRQACKKHELYVSFRDLGWQDWIIAPEGYAAYYCEGECAFPLNSYMNATNHAIVQTLVHFINPETVPKPCCAPTQLNAISVLYFDDSSNVILKKYRNMVVRACGCH"}}, "key": {"human liver organoids": {"test_system": "human liver organoids", "test": "Long-term expansion (passaging) of human liver organoids", "assay_type": "cell-based", "description": "Human liver cells isolated by collagenase dissociation were dissociated to single cell, counted and 3000 or 10000 cells were seeded per well in a 48 well plate. Mouse liver culture medium (ERFHNic) or medium supplemented with A8301 or A8301 and BMP7 or A8301 and BMP7 and Forskolin (FSK) was overlaid as indicated and organoids were allowed to grow. The cultures were split every week 7-10 days at a ratio of 1:4-1:6 dilution.\nHuman liver organoids were seeded in mouse medium supplemented with A8301 and with one of the CAMP activators as indicated in FIG. 4. Cholera toxin was used at a concentration of 100 ng/ml. Only the cultures that were treated with CAMP activators were able to be expanded >2 months (P8).\nLiver cells were isolated by collagenase digestion as follows: tissue (0.5-1 cm^3) was minced, rinsed 2× with DMEM (Gibco) 1% FCS and incubated with the digestion solution (2.5 mg/ml collagenase D (Roche)+0.1 mg/ml DNase I (Sigma) in EBSS (Hyclone, Thermoscientific), for […] at 37° C. The digestion was stopped by adding cold DMEM 1% FCS and the suspension was then filtered through a 70 um Nylon cell strainer and spun 5 min at 300-400 g. The pellet was resuspended in DMEM 1% FCS and kept cold. Any material retained on the strainer was further digested for 10 min in Accutase (Innovative Cell Technologies) at 37° C. Then, the digestion was stopped and the cells were collected as before. The different fractions (collagenase and accutase) were mixed and washed with cold Advanced DMEM/F12 and spun at 300-400 g for 5 min. The cell pellet was mixed with Matrigel (BD bioscience) and 3000-10000 cells were seeded per well in a 48 well/plate. After Matrigel had solidified, culture medium was added. Culture media was based on AdDMEM/F12 (Invitrogen) supplemented with N2 and B27 without retinoic acid (both from Gibco), 1.25 mM N-Acetylcysteine (Sigma). 10 nM gastrin (Sigma) and the growth factors: 50 ng/ml EGF (Peprotech), 10% RSPO1 conditioned media (home-made), 100 ng/ml FGF10 (Peprotech). 25 ng/ml HGF, 10 mM Nicotinamide (Sigma), 5 uM TGF-beta inhibitor (A83.01 (Tocris)) and 10 uM FSK (Tocris). For the establishment of the culture, the first 3 days after isolation the medium was supplemented with 25 ng/ml Noggin (Peprotech), 30% Wnt CM (home-made prepared as described in (Barker and Huch 2010)), 10 uM Rock inhibitor (Y27632) and hES Cell cloning Recovery solution (Stemgent). Then, the medium was changed into a medium without Noggin, Wnt. Y27632, hES Cell cloning Recovery solution (Stemgent) while 25 ng/ml BMP7 (Peprotech) were supplemented on top. One week-10 days organoids were removed from the Matrigel, mechanically dissociated into small fragments, and transferred to fresh Matrigel. Passage was performed in 1:4-1:8 split ratio once per week for at least 6 months. […]"}, "[1]": {"test_system": "Lgr5 cells in human liver cultures", "test": "Flow cytometry analysis of LGR5 positive cells", "assay_type": "cell-based", "details": "cultured >4 weeks in the presence of FSK; not readily detected in absence; 2 donor cultures", "description": "(§1) Lgr5 expression was analysed in cultures grown in our defined culture medium by immunofluorescence and flow cytometry analysis. (FIG. 5A) Confocal image of a human liver organoid showing that the organoids are formed by epithelial derived cells positive for EPCAM (blue). The stem cell marker Lgr5 (green) was restricted to a subset of cells within the organoid, while the Wnt target gene EPHB2 (red) was broadly expressed, but colocalized with LGR5 as expected. Staining was performed on single cells isolated from a culture that had been cultured for >4 weeks in the presence or absence of FSK. Only in the presence of FSK Lgr5 cells could be readily detected as a 1-3% of the culture population. Experiment was performed in 2 independent human liver donor cultures. (FIG. 5C) qPCR analysis of the expression of LGR5 in 4 week old cultures treated in the presence or absence of FSK.\nExponentially growing organoids were cultured for at least 5 days in the presence or absence of FSK. Then, organoids were dissociated into single cells using Accutase, resuspended in DMEM+2% FBS and incubated with Lgr5 antibody (AP2745d, Abgent) for 45 min. […] Cells were analyzed with a BD FACS Calibur (Becton-Dickinson); FSC: propidium iodide was used to label dead cells for exclusion and pulse-width gating to exclude cell doublets."}, "[2]": {"test_system": "LGR5 expression in human liver cultures", "test": "qPCR analysis of LGR5 expression", "assay_type": "cell-based", "details": "4 week old cultures, presence vs absence of FSK", "description": "as §1"}, "cAMP pathway": {"test_system": "cAMP pathway", "details": "compared with 8-BR-cAMP and forskolin; cited from earlier work"}, "[3]": {"test_system": "human liver organoid cultures (ALB, CYP3A4 expression)", "details": "hepatocytes"}, "[4]": {"details": "culture medium supplemented with A8301 combined with FSK, split ratio 1:4-1:6 every 7-10 days"}}}
{"molecule": "Cc1cccc(-c2nn(C(=S)Nc3ccccc3)cc2-c2ccnc3ccccc23)n1", "note": "[A83-01, 3-(6-Methyl-2-pyridinyl)-N-phenyl-4-(4-quinolinyl)-1H-pyrazole-1-carbothioamide]", "values": [{"measurement": "long-term expansion outcome", "setting": "human liver organoids; medium supplemented with A8301 only (no FSK)", "value": "arrested proliferation after some weeks in culture"}]}
{"molecule": "C=C[C@@]1(C)CC(=O)[C@]2(O)[C@@]3(C)[C@@H](O)CCC(C)(C)[C@@H]3[C@H](O)[C@H](OC(C)=O)[C@@]2(C)O1", "note": "[FSK, forskolin]", "values": [{"measurement": "number of passages the cultures were able to grow", "setting": "human liver organoids; [4]", "value": "> 18", "unit": "passages"}, {"measurement": "time the cultures were able to grow", "setting": "human liver organoids; [4]", "value": "> 5", "unit": "months"}, {"measurement": "Lgr5 cells as % of the culture population", "setting": "[1]", "value": "1-3%"}, {"measurement": "LGR5 expression levels, upregulation upon treatment", "setting": "[2]", "value": "2-3 ×"}]}
{"molecule": "C=C[C@@]1(C)CC(=O)[C@]2(O)[C@@]3(C)[C@@H](O)CCC(C)(C)[C@@H]3[C@H](OC(=O)CCN(C)C)[C@H](OC(C)=O)[C@@]2(C)O1.Cl", "note": "[NKH477]", "values": [{"measurement": "relative potency as cAMP pathway activator", "setting": "cAMP pathway", "value": "generally more potent than 8-BR-CAMP and forskolin"}]}
{"molecule": "B1", "values": [{"measurement": "long-term expansion outcome", "setting": "human liver organoids; medium supplemented with BMP7 and A8301 (no FSK)", "value": "arrested proliferation after some weeks in culture"}, {"measurement": "effect on expression of hepatocyte markers ALB and CYP3A4", "setting": "[3]", "value": "slightly facilitated the expression of hepatocyte markers ALB and CYP3A4"}]}
